Like-named read-outs stand apart in the source and are kept apart here.
Legend:
EP300-BRD = target: T1, EP300-BRD (Homo sapiens, UniProt Q09472); experiment: BROMOscan ligand binding site-directed competition assay, EP300; details: for Kd: BROMOscan; for LE EP300 (ligand efficiency): LE = 1.4(pIC50)/N
T1 construct: T7 phage display fusion with DNA tag for qPCR; purchased Eurofins Discovery (BROMOscan service); host or cells: E. coli infected with T7 phage
T1 sequence (Q09472 1049-1156 limits assumed): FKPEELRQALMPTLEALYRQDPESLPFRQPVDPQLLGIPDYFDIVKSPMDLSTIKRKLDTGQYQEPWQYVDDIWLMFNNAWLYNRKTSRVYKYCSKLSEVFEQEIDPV
Description: (§1) 2. Methods and General Procedures […]
(§2) KD values were determined using BROMOscan™ technology, carried out by Eurofins […]
(§3) Discovery according to their standard protocol. Briefly E. coli were infected with T7 phage […]
(§4) strains displaying bromodomains and bromodomain protein was subsequently purified […]
(§5) through lysis, centrifugation and filtration. Affinity resins were generated by incubation of […]
(§6) streptavidin-coated magnetic beads with biotinylated small molecules or acetylated […]
(§7) peptide ligands. Binding reactions were assembled by combining the bromodomains and […]
(§8) liganded affinity beads in binding buffer (17 % SeaBlock, 0.33x PBS, 0.04 % Tween 20, […]
(§9) 0.02 % BSA, 0.004 % sodium azide and 7.4 mM DTT) with compounds (11-point, 3-fold […]
(§10) dilution series) added to give a final DMSO concentration of 0.09 %. Assay plates were […]
(§11) incubated for 1 h, prior to washing and elution of beads. The bromodomain concentration […]
(§12) in the eluates was measured by qPCR of the DNA tag on the bromodomain.
(§13) KD values were calculated with a standard dose-response curve fitted using the Hill […]
(§14) Response = Background + Signal − Background […]
(§15) The Hill Slope was set to -1 and curves fitted using a non-linear least square fit with the Levenberg-Marquardt algorithm.
(§16) Ligand efficiency (LE) was calculated as follows: LE = 1.4(pIC50)/N

CBP-BRD [1] = target: T2, CBP-BRD (Homo sapiens, UniProt Q92793); experiment: BROMOscan ligand binding site-directed competition assay, CBP; design: T7 phage display fusion with DNA tag for qPCR; purchased Eurofins Discovery (BROMOscan service); host or cells: E. coli infected with T7 phage; details: for Kd: BROMOscan; for LE CBP (ligand efficiency): LE = 1.4(pIC50)/N
Description: as §1, §2, §3, §4, §5, §6, §7, §8, §9, §10, §11, §12, §13, §14, §15, §16

EP300 = target: T3, EP300 (Homo sapiens, UniProt Q09472); experiment: Quantification of EP300 degradation by Western blotting in LP1 cells; format: cell-based; details: 16 h, Western blot; for % remaining EP300: 5 μM compound
T3 construct: quantification of CBP and EP300 levels by Western blotting following 16 h treatment of LP1 cells; endogenous in cells; host or cells: LP1 cells
T3 sequence (Q09472 whole entry): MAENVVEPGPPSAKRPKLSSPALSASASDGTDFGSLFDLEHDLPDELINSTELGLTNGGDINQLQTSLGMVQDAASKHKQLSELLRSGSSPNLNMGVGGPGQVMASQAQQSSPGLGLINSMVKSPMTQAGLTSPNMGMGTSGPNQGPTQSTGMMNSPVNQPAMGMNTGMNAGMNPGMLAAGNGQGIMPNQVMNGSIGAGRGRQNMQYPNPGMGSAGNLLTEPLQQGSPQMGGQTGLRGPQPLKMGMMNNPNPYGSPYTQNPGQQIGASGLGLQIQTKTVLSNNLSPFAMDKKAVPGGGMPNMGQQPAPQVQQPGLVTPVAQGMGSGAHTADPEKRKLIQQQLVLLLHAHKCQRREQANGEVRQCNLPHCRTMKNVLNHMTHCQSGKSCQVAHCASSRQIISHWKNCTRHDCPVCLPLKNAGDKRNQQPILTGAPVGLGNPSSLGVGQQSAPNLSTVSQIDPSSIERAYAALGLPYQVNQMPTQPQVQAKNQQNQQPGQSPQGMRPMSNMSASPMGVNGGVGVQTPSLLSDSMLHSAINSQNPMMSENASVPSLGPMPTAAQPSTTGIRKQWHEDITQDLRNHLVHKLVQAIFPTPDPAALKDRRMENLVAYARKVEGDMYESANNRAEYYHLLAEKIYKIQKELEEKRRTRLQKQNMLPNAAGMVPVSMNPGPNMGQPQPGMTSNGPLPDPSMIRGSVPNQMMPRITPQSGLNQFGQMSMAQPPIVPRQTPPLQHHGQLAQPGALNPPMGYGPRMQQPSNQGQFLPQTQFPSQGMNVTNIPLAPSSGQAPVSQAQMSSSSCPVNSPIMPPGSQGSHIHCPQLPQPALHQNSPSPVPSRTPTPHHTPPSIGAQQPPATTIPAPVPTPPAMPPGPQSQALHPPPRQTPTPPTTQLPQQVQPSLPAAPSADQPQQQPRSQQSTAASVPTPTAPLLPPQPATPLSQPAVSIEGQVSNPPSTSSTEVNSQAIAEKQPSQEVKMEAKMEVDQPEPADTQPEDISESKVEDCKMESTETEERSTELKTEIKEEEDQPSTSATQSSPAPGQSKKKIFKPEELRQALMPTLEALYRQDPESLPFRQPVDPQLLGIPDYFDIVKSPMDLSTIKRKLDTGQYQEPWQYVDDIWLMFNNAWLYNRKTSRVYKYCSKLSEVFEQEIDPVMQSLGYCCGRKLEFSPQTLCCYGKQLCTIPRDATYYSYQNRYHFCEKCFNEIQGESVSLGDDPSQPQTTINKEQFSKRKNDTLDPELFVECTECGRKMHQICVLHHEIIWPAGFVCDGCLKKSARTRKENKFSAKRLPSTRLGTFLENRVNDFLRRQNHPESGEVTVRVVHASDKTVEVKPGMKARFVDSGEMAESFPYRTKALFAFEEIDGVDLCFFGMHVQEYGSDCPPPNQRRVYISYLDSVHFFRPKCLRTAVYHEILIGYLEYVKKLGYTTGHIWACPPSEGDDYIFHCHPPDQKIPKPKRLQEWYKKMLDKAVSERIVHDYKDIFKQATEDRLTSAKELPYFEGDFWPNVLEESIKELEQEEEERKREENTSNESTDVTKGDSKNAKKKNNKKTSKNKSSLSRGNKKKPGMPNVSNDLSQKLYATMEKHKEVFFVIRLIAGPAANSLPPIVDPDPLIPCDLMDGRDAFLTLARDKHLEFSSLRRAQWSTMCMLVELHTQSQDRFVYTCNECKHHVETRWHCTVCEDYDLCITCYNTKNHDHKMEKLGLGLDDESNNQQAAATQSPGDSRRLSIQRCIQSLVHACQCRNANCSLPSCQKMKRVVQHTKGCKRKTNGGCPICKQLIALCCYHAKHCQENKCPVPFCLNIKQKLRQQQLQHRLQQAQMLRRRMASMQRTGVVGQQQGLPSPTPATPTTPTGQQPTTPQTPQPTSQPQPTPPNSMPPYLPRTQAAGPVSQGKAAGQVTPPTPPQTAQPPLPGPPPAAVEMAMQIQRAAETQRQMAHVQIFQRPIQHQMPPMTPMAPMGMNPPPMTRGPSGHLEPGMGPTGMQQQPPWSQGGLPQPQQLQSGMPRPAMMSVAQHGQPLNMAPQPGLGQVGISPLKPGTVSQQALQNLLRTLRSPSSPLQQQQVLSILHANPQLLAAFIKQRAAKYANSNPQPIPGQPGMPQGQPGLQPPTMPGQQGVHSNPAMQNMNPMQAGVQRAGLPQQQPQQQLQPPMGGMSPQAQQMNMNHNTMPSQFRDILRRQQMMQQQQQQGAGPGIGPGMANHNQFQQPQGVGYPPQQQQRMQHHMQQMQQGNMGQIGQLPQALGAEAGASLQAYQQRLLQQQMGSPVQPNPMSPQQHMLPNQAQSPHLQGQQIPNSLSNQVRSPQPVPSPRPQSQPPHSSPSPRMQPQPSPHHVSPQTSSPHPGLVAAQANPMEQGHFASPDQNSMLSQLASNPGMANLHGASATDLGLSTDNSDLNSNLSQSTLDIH
Description: (§17) LP1 cells were cultured in DMEM (Gibco, 41966-029) supplemented with 15 % FBS (Sigma, F9665); MM1S and LNCaP cells in RPMI 1640 ATCC modification (Gibco, […]
(§18) DMEM/F12 (Gibco, 11320074) supplemented with 1 % non-essential amino acids […]
(§19) additionally supplemented with 1 % penicillin/streptomycin (Gibco, 15070-063), and cells maintained in a humidified incubator with 5 % CO2 at 37 °C. The identity of all lines (except for MM1S which were recently purchased from ATCC) was authenticated by STR profiling (performed by Microsynth).
(§20) Quantification of CBP/EP300 degradation by Western blotting
(§21) LP1 cells plated on 6 well plates were treated with the stated compounds at a final concentration of 0.1 % DMSO for the stated time. Cells were harvested on ice, washed in PBS and lysed in RIPA buffer (50 mM tris pH 7.5, 2 mM EDTA, 150 mM NaCl, 0.5 % sodium deoxycholate, 1 % Triton X100) supplemented with cOmplete ™ protease inhibitor cocktail (Roche). Protein concentrations were determined using the Pierce ™ BCA Protein Assay Kit (Thermo Scientific, 23227) and equal amounts were separated on 4-12 % ExpressPl us™ PAGE gels (GenScript, M41215). Proteins were transferred to PVDF membranes, the membranes were blocked with 5 % milk (Merk Millipore, 115363) in PBS-T and proteins were stained with the following antibodies at 4 °C overnight: CBP […]
(§22) BRD4 (Bethyl Laboratories, A301-985A50, diluted 1:2000) and vinculin (Invitrogen, 42H89L44, diluted 1:1000). For detection, membranes were incubated for 1 h at room temperature with HRP-conjugated secondary antibodies (Southern Biotech, anti-rabbit […]
(§23) SuperSignal™ West Pico PLUS Chemiluminescent Substrate (Thermo Scientific, 34580) and the Vilber Fusion-FX7 imager. Bands were quantified using ImageJ software and protein levels normalized to protein from DMSO treated cells run on the same membrane. For dose response curves, data was fitted using a four -parameter dose-response curve in GraphPad Prism v. 9.5.1, where the top is fixed at 100 %. The DC50 was defined as the PROTAC concentration resulting in 50 % remaining protein. […]

CBP = target: T4, CBP (Homo sapiens, UniProt Q92793); experiment: Quantification of CBP degradation by Western blotting in LP1 cells; format: cell-based; details: 16 h, Western blot; for % remaining CBP: 5 μM compound
T4 construct: quantification of CBP and EP300 levels by Western blotting following 16 h treatment of LP1 cells; endogenous in cells; host or cells: LP1 cells
T4 sequence (Q92793 whole entry): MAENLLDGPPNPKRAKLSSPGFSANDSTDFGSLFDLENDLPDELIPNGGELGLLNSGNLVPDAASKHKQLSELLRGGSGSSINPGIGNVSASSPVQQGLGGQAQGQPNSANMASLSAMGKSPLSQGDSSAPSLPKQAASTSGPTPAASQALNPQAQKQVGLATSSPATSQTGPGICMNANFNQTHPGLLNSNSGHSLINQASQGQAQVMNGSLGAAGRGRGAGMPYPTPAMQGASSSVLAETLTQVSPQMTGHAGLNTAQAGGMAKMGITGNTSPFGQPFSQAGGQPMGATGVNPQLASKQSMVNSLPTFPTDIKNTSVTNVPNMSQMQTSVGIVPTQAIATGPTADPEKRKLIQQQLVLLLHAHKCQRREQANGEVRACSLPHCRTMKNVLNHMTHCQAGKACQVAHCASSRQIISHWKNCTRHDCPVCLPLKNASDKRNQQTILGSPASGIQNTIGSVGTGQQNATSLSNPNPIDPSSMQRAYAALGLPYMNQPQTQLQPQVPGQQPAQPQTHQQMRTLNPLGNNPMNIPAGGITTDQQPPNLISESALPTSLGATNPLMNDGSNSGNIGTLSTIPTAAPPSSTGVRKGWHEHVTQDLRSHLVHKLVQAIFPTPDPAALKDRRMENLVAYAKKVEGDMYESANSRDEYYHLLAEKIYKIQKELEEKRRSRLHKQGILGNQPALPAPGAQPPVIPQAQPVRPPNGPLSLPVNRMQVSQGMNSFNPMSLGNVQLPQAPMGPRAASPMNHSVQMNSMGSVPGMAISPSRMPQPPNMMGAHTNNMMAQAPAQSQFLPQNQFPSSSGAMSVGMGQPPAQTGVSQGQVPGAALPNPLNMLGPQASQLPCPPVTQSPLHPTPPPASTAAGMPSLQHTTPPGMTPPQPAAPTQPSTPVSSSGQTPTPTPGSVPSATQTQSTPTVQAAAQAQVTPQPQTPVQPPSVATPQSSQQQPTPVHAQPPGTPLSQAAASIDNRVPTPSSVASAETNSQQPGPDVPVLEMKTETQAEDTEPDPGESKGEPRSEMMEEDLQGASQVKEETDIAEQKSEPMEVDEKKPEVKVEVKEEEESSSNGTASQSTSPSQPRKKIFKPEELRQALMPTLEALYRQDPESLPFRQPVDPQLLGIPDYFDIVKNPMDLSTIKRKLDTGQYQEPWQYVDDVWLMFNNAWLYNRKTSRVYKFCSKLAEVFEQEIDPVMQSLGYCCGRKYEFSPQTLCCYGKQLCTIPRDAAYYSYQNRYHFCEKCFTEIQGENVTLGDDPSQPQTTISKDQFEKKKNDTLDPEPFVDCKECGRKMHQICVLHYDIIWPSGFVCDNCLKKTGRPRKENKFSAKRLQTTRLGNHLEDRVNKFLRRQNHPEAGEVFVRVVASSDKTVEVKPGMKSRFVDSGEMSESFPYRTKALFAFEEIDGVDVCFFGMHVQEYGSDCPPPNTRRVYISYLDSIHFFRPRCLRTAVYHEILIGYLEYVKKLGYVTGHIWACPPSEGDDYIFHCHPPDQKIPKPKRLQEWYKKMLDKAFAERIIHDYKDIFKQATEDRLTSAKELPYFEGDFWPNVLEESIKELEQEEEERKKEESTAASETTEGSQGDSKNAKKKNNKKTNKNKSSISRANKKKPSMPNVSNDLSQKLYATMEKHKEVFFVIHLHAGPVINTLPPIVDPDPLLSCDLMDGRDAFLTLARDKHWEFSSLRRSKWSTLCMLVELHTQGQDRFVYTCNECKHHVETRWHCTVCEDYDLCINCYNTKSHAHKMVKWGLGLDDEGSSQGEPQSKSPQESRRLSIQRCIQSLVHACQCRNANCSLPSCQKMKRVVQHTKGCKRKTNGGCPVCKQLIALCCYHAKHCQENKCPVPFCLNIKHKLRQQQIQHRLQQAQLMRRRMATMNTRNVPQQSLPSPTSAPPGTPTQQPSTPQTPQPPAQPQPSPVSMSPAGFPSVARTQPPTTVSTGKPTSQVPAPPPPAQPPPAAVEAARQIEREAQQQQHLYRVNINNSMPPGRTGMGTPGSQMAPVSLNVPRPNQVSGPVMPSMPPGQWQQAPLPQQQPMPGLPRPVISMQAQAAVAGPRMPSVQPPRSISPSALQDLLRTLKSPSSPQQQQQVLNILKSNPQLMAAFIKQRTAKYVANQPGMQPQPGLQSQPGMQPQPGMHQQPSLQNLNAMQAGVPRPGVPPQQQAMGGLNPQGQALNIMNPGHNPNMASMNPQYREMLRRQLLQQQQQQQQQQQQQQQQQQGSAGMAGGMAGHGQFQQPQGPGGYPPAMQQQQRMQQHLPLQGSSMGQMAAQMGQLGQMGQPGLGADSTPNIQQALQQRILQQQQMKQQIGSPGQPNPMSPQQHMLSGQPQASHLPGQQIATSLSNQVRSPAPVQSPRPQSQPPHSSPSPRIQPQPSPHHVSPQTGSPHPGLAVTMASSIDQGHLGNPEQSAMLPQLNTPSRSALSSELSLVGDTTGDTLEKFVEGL
Description: as §17, §18, §19, §20, §21, §22, §23

[2] = target: CRBN and CBP catalytic core (Homo sapiens, UniProt Q92793+Q96SW2); experiment: FluoPPI cellular ternary complex formation, CBP catalytic core; format: cell-based; details: U2OS cells, 6 h
CRBN and CBP-BRD = CRBN and CBP-BRD (Homo sapiens, UniProt Q92793+Q96SW2); experiment: FluoPPI cellular ternary complex formation, CBP-BRD; format: cell-based; details: U2OS cells, 6 h
[3] = target: T5, CBP-BRD:CRBN thalidomide binding domain ternary complex (Homo sapiens, UniProt Q92793+Q96SW2); experiment: TR-FRET CBP-BRD:PROTAC:CRBN ternary complex formation; details: CBP-BRD and CRBN-thalidomide binding domain labeled with TR-FRET pair
T5 construct: GST-CBP (human, residues 1081-1197); the C-terminus of CRBN (human, residues 318-442); His6 with TEV cleavage site (N, cleaved yes); made in house; host or cells: Rosetta (DE3) cells (E. coli)
T5 sequence (Q92793 1081-1197): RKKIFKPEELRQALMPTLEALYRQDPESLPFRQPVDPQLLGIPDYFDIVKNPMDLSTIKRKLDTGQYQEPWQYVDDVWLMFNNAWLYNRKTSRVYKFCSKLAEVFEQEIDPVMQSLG
T5 sequence (Q96SW2 318-442): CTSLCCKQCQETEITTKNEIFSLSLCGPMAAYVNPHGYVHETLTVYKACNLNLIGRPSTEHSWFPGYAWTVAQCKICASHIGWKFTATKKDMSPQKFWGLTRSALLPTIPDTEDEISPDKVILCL
Description: (PMSF), and 1 mM EDTA) and lysed by sonication. The lysates were clarified by centrifugation (18,000 rpm, 4 °C, 1 h).
For GST-CBP the soluble proteins were loaded onto a column packed with glutathione sepharose 4B (GE Healthcare) and subsequently eluted with 10 mM reduced glutathione in buffer containing 20 mM Tris-HCl pH 8.0, and 150 mM NaCl. Finally, a size exclusion step (HiLoad 16/600 Superdex 200 pg column from GE Healthcare) was used to further purify the protein in buffer containing 50 mM HEPES pH 7.5 and 150 mM NaCl. For His-CRBN and His-CRBN-Avi(biotin), the soluble fractions were loaded onto the HisTrap FF crude column (GE Healthcare) and washed with lysis buffer supplemented with 50 mM imidazole. The proteins were eluted with a buffer containing 250 mM imidazole, 100 mM Tris-HCl pH 8.0 and 500 mM NaCl. For His-CRBN-Avi(biotin) only, recombinant TEV protease was used to cleave the His6-tag during overnight dialysis at 4 °C against buffer containing 100 mM Tris-HCl pH 8.0 and 500 mM NaCl. The dialyzed sample was passed through the HisTrap FF crude column to remove His6-tagged TEV protease and uncleaved protein. […]
The maximal control contained no PROTAC, the blank contained no SK-20 and no PROTAC – these were replaced by the appropriate buffer. […] The samples were incubated for 3 h (20 °C, dark) and the signal was detected using the Infinite M1000 plate reader (Tecan). After excitation at 317 nm, emission at 620 and 665 nm was recorded. […]
were determined according to the following equation:
activity (%) = ΔF ∗ 100 = F−Fb ∗ 100 , where Ft is the TR-FRET signal in the absence of any compound (maximal control, 100 % activity), Fb the TR-FRET signal in the absence of the GST -CBP (blank, 0 % activity) and F the TR -FRET signal in the presence of the compound. Dose -response curves were plotted in GraphPad Prism 10.2.3 and fitted with nonlinear regression “log(inhibitor) vs. normalized response – variable slope”, from which IC 50 values were determined. […]

CBP-BRD [4] = target: T2, CBP-BRD; experiment: TR-FRET competition with acetylated peptide binding to CBP-BRD, with and without CRBN (cooperativity); design: GST-CBP (human, residues 1081-1197); made in house; host or cells: Rosetta (DE3) cells (E. coli)

Structure (SMILES)	Kd (EP300-BRD)	LE EP300 (ligand efficiency) (EP300-BRD)	Kd (CBP-BRD [1])	LE CBP (ligand efficiency) (CBP-BRD [1])	% remaining EP300 (EP300)	% remaining CBP (CBP)	further results
CC(=O)Nc1cc(NC(=O)c2ccco2)cc(C(=O)Nc2cccc3nnc(C)cc23)c1 [compound 1]	23 nM	0.33	19 nM	0.34	–	–	–
Cc1cc2c(NC(=O)c3cc(NC(=O)c4ccco4)cc(-c4ccn(C)n4)c3)cccc2nn1 [compound 2]	9.9 nM	0.33	8.7 nM	0.33	–	–	–
CC(=O)Nc1cc(C(=O)Nc2cccc3nnc(C)cc23)cc(-c2ccn(C)n2)c1 [compound 3]	25 nM	0.35	29 nM	0.35	–	–	–
Cc1cc2c(NC(=O)c3cc(NC(=O)CCCCCCCCCCCNc4cccc5c4C(=O)N(C4CCC(=O)NC4=O)C5=O)cc(-c4ccn(C)n4)c3)cccc2nn1 (stereo not shown) [compound 4]	> 10000 nM	–	3300 nM	–	43%	21%	ternary complex formation in cells with CBP catalytic core [2]: able to induce ternary complex formation; ternary complex formation in cells with CRBN and CBP-BRD (CRBN and CBP-BRD): good ternary complex formation
Cc1cc2c(NC(=O)c3cc(NC(=O)CCCCCCCCNc4cccc5c4C(=O)N(C4CCC(=O)NC4=O)C5=O)cc(-c4ccn(C)n4)c3)cccc2nn1 (stereo not shown) [compound 6]	–	–	–	–	87%	83%	–
Cc1cc2c(NC(=O)c3cc(NC(=O)CCCCCCCCCCNc4ccc5c(c4)C(=O)N(C4CCC(=O)NC4=O)C5=O)cc(-c4ccn(C)n4)c3)cccc2nn1 (stereo not shown) [compound 7]	–	–	–	–	69%	30%	–
Cc1cc2c(NC(=O)c3cc(NC(=O)COCCOCCOCCNc4cccc5c4C(=O)N(C4CCC(=O)NC4=O)C5=O)cc(-c4ccn(C)n4)c3)cccc2nn1 (stereo not shown) [compound 8]	–	–	–	–	95%	81%	–
Cc1cc2c(NC(=O)c3cc(NC(=O)CCCCCCCN4CCN(c5ccc6c(c5)C(=O)N(C5CCC(=O)NC5=O)C6=O)CC4)cc(-c4ccn(C)n4)c3)cccc2nn1 (stereo not shown) [compound 9]	45 nM	–	28 nM	–	> 95%	> 95%	ternary complex formation in cells with CRBN and CBP-BRD (CRBN and CBP-BRD): good ternary complex formation
Cc1cc2c(NC(=O)c3cc(NC(=O)CCCCCCCCCCNc4cccc5c4C(=O)N(C4CCC(=O)N(C)C4=O)C5=O)cc(-c4ccn(C)n4)c3)cccc2nn1 (stereo not shown) [compound 10]	–	–	–	–	–	–	degradation of EP300 (EP300; 1 μM): abrogated; ternary complex formation (TR-FRET) [3]: did not show cooperativity or ternary complex formation; degradation of CBP (CBP; 1 μM): abrogated; IC50 (CBP-BRD [4]; absence of CRBN, read-out: CBP-BRD IC50 (binary, IC50[control])): 220 nM; IC50 (CBP-BRD [4]; presence of high concentrations of CRBN C-terminal thalidomide binding domain, read-out: ternary IC50 (IC50[CRBN])): 230 nM
